Assay [1] deals with T1, HCV NS3/4A protease complex (BMS strain, genotype 1a) (Hepatitis C virus genotype 1a, UniProt P27958, C1454S).
T1 construct: DNA encoding the recombinant HCV NS3/4A protease complex (amino acids 1027 to 1711) for these strains; inferred from the pET21b vector and Ni-NTA purification; made in house; host or cells: Escherichia coli BL21 (DE3), pET21b
In words: Recombinant HCV NS3/4A protease complex FRET peptide assay, BMS strain. Type of assay: biochemical. As to conditions: NS3/4A BMS Strain. An excerpt:
The purpose of this in vitro assay was to measure the inhibition of HCV NS3 protease complexes, derived from the BMS, H77C or J416S strains, as described below, by compounds of the present invention.
Serum from an HCV-infected patient was obtained from Dr. T. Wright, San Francisco Hospital. An engineered full-length cDNA (compliment deoxyribonucleic acid) template of the HCV genome (BMS strain) was constructed from DNA fragments obtained by reverse transcription-PCR (RT-PCR) of serum RNA (ribonucleic acid) and using primers selected on the basis of homology between other genotype 1a strains. […] The infectious clones, H77C (1a genotype) and J4L6S (1b genotype) were obtained from R. Purcell (NIH) and the sequences are published in Genbank (AAB67036, see Yanagi,M., Purcell,R. H., Emerson,S. U. and Bukh,J. Proc. Natl. Acad. Sci. U.S.A. 94(16),8738-8743 (1997); AF054247, see Yanagi,M., St Claire,M., Shapiro,M., Emerson,S. U., Purcell,R. H. and Bukh,J, Virology 244 (1), 161-172. (1998)).
The BMS, H77C and J4L6S strains were used for production of recombinant NS3/4A protease complexes. DNA encoding the recombinant HCV NS3/4A protease complex (amino acids 1027 to 1711) for these strains were manipulated as described by P. Gallinari et al. (see Gallinari P, Paolini C, Brennan D, Nardi C, Steinkuhler C, De Francesco R. Biochemistry. 38(17):5620-32, (1999)). Briefly, a three-lysine solubilizing tail was added at the 3′-end of the NS4A coding region. The cysteine in the P1 position of the NS4A-NS4B cleavage site (amino acid 1711) was changed to a glycine to avoid the proteolytic cleavage of the lysine tag. Furthermore, a cysteine to serine mutation was introduced by PCR at amino acid position 1454 to prevent the autolytic cleavage in the NS3 helicase domain. The variant DNA fragment was cloned in the pET21b bacterial expression vector (Novagen) and the NS3/4A complex was expressed in Escherichia. coli strain BL21 (DE3) (Invitrogen) following the protocol described by P. Gallinari et al. (see Gallinari P, Brennan D, Nardi C, Brunetti M, Tomei L, Steinkuhler C, De Francesco R., J. Virol. 72(8):6758-69 (1998)) with modifications. Briefly, NS3/4A expression was induced with 0.5 mM Isopropyl β-D-1-thiogalactopyranoside (IPTG) for 22 hr at 20° C. […] The cells were resuspended in lysis buffer (10 mL/g) consisting of 25 mM N-(2-Hydroxyethyl)Piperazine-N′-(2-Ethane Sulfonic acid) (HEPES), pH 7.5, 20% glycerol, 500 mM Sodium Chloride (NaCl), 0.5% Triton-X100, 1 ug/ml lysozyme, 5 mM Magnesium Chloride (MgCl2), 1 ug/ml DnaseI, 5 mM β-Mercaptoethanol (βME), Protease inhibitor—Ethylenediamine Tetraacetic acid (EDTA) free (Roche), homogenized and incubated for 20 mins at 4° C. The homogenate was sonicated and clarified by ultra-centrifugation at 235000 g for 1 hr at 4° C. Imidazole was added to the supernatant to a final concentration of 15 mM and the pH adjusted to 8.0. The crude protein extract was loaded on a Nickel-Nitrilotriacetic acid (Ni-NTA) column pre-equilibrated with buffer B (25 mM HEPES, pH 8.0, 20% glycerol, 500 mM NaCl, 0.5% Triton-X100, 15 mM imidazole, 5 mM βME). The sample was loaded at a flow rate of 1 mL/min. The column was washed with 15 column volumes of buffer C (same as buffer B except with 0.2% Triton-X100). The protein was eluted with 5 column volumes of buffer D (same as buffer C except with 200 mM Imidazole).
NS3/4A protease complex-containing fractions were pooled and loaded on a desalting column Superdex-S200 pre-equilibrated with buffer D (25 mM HEPES, pH7.5, 20% glycerol, 300 mM NaCl, 0.2% Triton-X100, 10 mM βME).

Assay [2] relates to HCV replicon in Huh7 cells. Nature of the assay: HCV replicon cell-based assay (FRET). As to conditions: HCV replicon, read-out: EC50 range. An excerpt:
An HCV replicon whole cell system was established as described by Lohmann V, Korner F, Koch J, Herian U, Theilmann L, Bartenschlager R., Science 285(5424):110-3 (1999). This system enabled us to evaluate the effects of our HCV Protease compounds on HCV RNA replication. Briefly, using the HCV strain 1B sequence described in the Lohmann paper (Assession number: AJ238799), an HCV cDNA was generated encoding the 5′ internal ribosome entry site (IRES), the neomycin resistance gene, the EMCV (encephalomyocarditis viurs)-IRES and the HCV nonstructural proteins, NS3-NS5B, and 3′ non-translated region (NTR). In vitro transcripts of the cDNA were transfected into the human hepatoma cell line, Huh7. […] Resulting cell lines were characterized for positive and negative strand RNA production and protein production over time.
Huh7 cells, constitutively expressing the HCV replicon, were grown in Dulbecco's Modified Eagle Media (DMEM) containing 10% Fetal calf serum (FCS) and 1 mg/ml G418 (Gibco-BRL). Cells were seeded the night before (1.5×10^4 cells/well) in 96-well tissue-culture sterile plates. Compound and no compound controls were prepared in DMEM containing 4% FCS, 1:100 Penicillin/Streptomysin, 1:100 L-glutamine and 5% DMSO in the dilution plate (0.5% DMSO final concentration in the assay). Compound/DMSO mixes were added to the cells and incubated for 4 days at 37° C. After 4 days, plates were rinsed thoroughly with Phosphate-Buffered Saline (PBS) (3 times 150 μl). The cells were lysed with 25 μl of a lysis assay reagent containing the FRET peptide (RET S1, as described for the in vitro enzyme assay). The lysis assay reagent was made from 5× cell Luciferase cell culture lysis reagent(Promega #E153A) diluted to 1× with distilled water, NaCl added to 150 mM final, the FRET peptide diluted to 10 μM final from a 2 mM stock in 100% DMSO. The plate was then placed into the Cytofluor 4000 instrument which had been set to 340 nm excitation/490 emission, automatic mode for 21 cycles and the plate read in a kinetic mode. EC50 determinations were carried out as described for the IC50 determinations.
A general note: Replicon systems follow genome replication, usually without infectious particles.

Data on ten molecules can be found in patent US6878722B2, “Substituted cycloalkyl P1′ hepatitis C virus inhibitors” (Bristol-Myers Squibb Company, priority 2002, dated 2005).

Read-outs that look alike come from different tables or passages of the source. Bounds are passed on as bounds.

T1 sequence (P27958 1658-1714, looked up, stated change not applied): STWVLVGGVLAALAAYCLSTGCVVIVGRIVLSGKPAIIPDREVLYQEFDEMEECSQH
T1 sequence (P27958 1027-1657, looked up, stated change not applied): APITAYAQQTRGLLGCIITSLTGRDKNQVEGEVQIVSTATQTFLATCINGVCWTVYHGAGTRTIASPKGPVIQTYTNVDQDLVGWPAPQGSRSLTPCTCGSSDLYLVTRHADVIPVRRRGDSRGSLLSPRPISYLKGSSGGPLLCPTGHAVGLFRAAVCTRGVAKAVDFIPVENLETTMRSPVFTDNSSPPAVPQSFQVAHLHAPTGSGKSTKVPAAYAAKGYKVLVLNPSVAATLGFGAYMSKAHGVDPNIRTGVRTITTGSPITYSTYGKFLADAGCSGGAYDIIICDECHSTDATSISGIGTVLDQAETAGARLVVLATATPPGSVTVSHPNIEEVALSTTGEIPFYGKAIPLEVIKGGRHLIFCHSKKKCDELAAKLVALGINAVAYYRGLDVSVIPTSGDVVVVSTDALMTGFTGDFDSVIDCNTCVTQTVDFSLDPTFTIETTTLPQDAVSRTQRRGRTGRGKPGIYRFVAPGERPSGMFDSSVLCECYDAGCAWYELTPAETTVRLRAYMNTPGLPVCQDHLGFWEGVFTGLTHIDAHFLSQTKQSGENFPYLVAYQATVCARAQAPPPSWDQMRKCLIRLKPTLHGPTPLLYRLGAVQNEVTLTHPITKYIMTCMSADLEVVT

For `C=C[C@@H]1C[C@]1(NC(=O)[C@@H]1C[C@@H](Oc2ccnc3cc(Cl)ccc23)CN1C(=O)[C@@H](NC(=O)OC1CCCC1)C(C)(C)C)C(=O)NS(=O)(=O)C1(CCC)CC1` [Compound 64, (1-{4-(7-Chloro-quinolin-4-yloxy)-2-[1-(1-propyl-cyclopropanesulfonylaminocarbonyl)-2-vinyl-cyclopropylcarbamoyl]-pyrrolidine-1-carbonyl}-2,2-dimethyl-propyl)-carbamic acid cyclopentyl ester], in assay [1] (IC50 range), the IC50 was under 50 nM. Further, the EC50 in assay [2] (Hepatitis C virus, Huh-7) was 50 to 500 nM.

As to `C=C[C@@H]1C[C@]1(NC(=O)[C@@H]1C[C@@H](Oc2cc(-c3ccccc3)nc3cc(OC)ccc23)CN1C(=O)[C@@H](NC(=O)OC(C)(C)C)C(C)(C)C)C(=O)NS(=O)(=O)C1(C=C(C)C)CC1` [Compound 44, [1-(4-(7-Methoxy-2-phenyl-quinolin-4-yloxy)-2-{1-[1-(2-methyl-propenyl)-cyclopropanesulfonylaminocarbonyl]-2-vinyl-cyclopropylcarbamoyl}-pyrrolidine-1-carbonyl)-2,2-dimethyl-propyl]-carbamic acid tert-butyl ester], the IC50 in assay [1] (IC50 range) was under 50 nM. Also, the EC50 in assay [2] (Hepatitis C virus, Huh-7) was in the range of 50 to 500 nM.

As for `C=CC1C[C@]1(NC(=O)[C@@H]1C[C@@H](Oc2cc(-c3ccccc3)nc3cc(OC)ccc23)CN1C(=O)[C@@H](NC(=O)OC(C)(C)C)C(C)(C)C)C(=O)NS(=O)(=O)C1(Br)CC1` (some centres unmarked) [Compound 11, {1-[2-[1-(1-Bromocyclopropanesulfonylaminocarbonyl)-2-vinylcy-clopropylcarbamoyl]-4-(7-methoxy-2-phenylquinolin-4-yloxy)pyrrolidine-1-carbonyl]-2,2-dimethylpropyl}-carbamic acid tert-butyl ester], in assay [1] (IC50 range), the IC50 is under 50 nM. Moreover, in assay [2] (Hepatitis C virus, Huh-7), the EC50 is under 50 nM.

For `C=C[C@@H]1C[C@]1(NC(=O)[C@@H]1C[C@@H](Oc2cc(-c3ccccc3)nc3cc(OC)ccc23)CN1C(=O)[C@@H](NC(=O)OC(C)(C)C)C(C)(C)C)C(=O)NS(=O)(=O)C1(CCCC)CC1` [Compound 30, {1-[2-[1-(1-Butyl-cyclopropanesulfonylaminocarbonyl)-2-vinyl-cyclopropylcarbamoyl]-4-(7-methoxy-2-phenyl-quinolin-4-yloxy)-pyrrolidine-1-carbonyl]-2,2-dimethyl-propyl}-carbamic acid tert-butyl ester], the IC50 in assay [1] (IC50 range) is under 50 nM. The EC50 in assay [2] (Hepatitis C virus, Huh-7) is under 50 nM.

As to `C=C[C@@H]1C[C@]1(NC(=O)[C@@H]1C[C@@H](Oc2cc(-c3ccccc3)nc3cc(OC)ccc23)CN1C(=O)[C@@H](NC(=O)OC(C)(C)C)C(C)(C)C)C(=O)NS(=O)(=O)C1(CC(C)C)CC1` [Compound 31, {1-[2-[1-(1-Isobutyl-cyclopropanesulfonylaminocarbonyl)-2-vinyl-cyclopropylcarbamoyl]-4-(7-methoxy-2-phenyl-quinolin-4-yloxy)-pyrrolidine-1-carbonyl]-2,2-dimethyl-propyl}-carbamic acid tert-butyl ester], the IC50 in assay [1] (IC50 range) was under 50 nM. Besides, in assay [2] (Hepatitis C virus, Huh-7), the EC50 was in the range of 50 to 500 nM.

For `C=C[C@@H]1C[C@]1(NC(=O)[C@@H]1C[C@@H](Oc2cc(-c3nc(C(C)C)cs3)nc3cc(OC)ccc23)CN1C(=O)[C@@H](NC(=O)OC(C)(C)C)C(C)(C)C)C(=O)OS(=O)(=O)C1(CCC)CC1` [Compound 77], in assay [1] (IC50 range), the IC50 is under 50 nM. Besides, the EC50 in assay [2] (Hepatitis C virus, Huh-7) was under 50 nM.

As for `C=CCCCCCCCCC1(S(=O)(=O)NC(=O)C2(NC(=O)C3CC(Oc4cc(-c5ccccc5)nc5cc(OC)ccc45)CN3C(=O)C(NC(=O)OC(C)(C)C)C(C)(C)C)CC2C=C)CC1` (centres unmarked) [Compound 33], the IC50 in assay [1] (read-out: IC50 range) is under 50 nM. Besides, the EC50 in assay [2] was in the range of 50 to 500 nM.

On to `C=C[C@@H]1C[C@]1(NC(=O)[C@@H]1C[C@@H](Oc2cc(-c3ccccc3)nc3cc(OC)ccc23)CN1C(=O)[C@@H](NC(=O)OC(C)(C)C)C(C)C)C(=O)NS(=O)(=O)C1(COC)CC1` [Compound 54, {1-[2-[1-(1-Methoxymethyl-cyclopropanesulfonylaminocarbonyl)-2-vinyl-cyclopropylcarbamoyl]-4-(7-methoxy-2-phenyl-quinolin-4-yloxy)-pyrrolidine-1-carbonyl]-2-methyl-propyl]-carbamic acid tert-butyl ester], for which, in assay [1] (IC50 range), the half-inhibitory concentration (IC50) was under 50 nM. Also, the EC50 in assay [2] (Hepatitis C virus, Huh-7) is under 50 nM.

Consider `C=C[C@@H]1C[C@]1(NC(=O)[C@@H]1C[C@@H](Oc2ccnc3cc(Cl)ccc23)CN1C(=O)[C@@H](NC(=O)OC1CCCC1)C(C)(C)C)C(=O)NS(=O)(=O)C1(CCCC)CC1` [Compound 65, {1-[2-[1-(1-Butyl-cyclopropanesulfonylaminocarbonyl)-2-vinyl-cyclopropylcarbamoyl]-4-(7-chloro-quinolin-4-yloxy)-pyrrolidine-1-carbonyl]-2,2-dimethyl-propyl}-carbamic acid cyclopentyl ester], for which, in assay [1] (IC50 range), the IC50 was under 50 nM. Besides, the 50% effective concentration (EC50) in assay [2] (Hepatitis C virus, Huh-7) was in the range of 50 to 500 nM.

Consider `C=C[C@@H]1C[C@]1(NC(=O)[C@@H]1C[C@@H](Oc2cc(-c3ccccc3)nc3cc(OC)ccc23)CN1C(=O)[C@@H](NC(=O)OC(C)(C)C)C(C)(C)C)C(=O)NS(=O)(=O)C1(CCOC)CC1` [Compound 35, {1-[2-{1-[1-(2-Methoxy-ethyl)-cyclopropanesulfonylaminocarbonyl]-2-vinyl-cyclopropylcarbamoyl}-4-(7-methoxy-2-phenyl-quinolin-4-yloxy)-pyrrolidine-1-carbonyl]-2,2-dimethyl-propyl}-carbamic acid tert-butyl ester], for which, in assay [1] (IC50 range), the IC50 is under 50 nM. In addition, the EC50 in assay [2] (Hepatitis C virus, Huh-7) is under 50 nM.

As usually defined, the IC50 is the point on the concentration scale where inhibition reaches its midpoint. As a reminder, the EC50 is the concentration that produces a half-maximal response.
